Reference: patent US12365709B2, “Immunomodulatory peptide” (INSTITUT NATIONAL UNI[…]-FRANCOIS CHAMPOLLION, priority 2017, dated 2025)
No end group written: not given here.

Tests used:
[1] = test system: macrophages derived from human monocytes; assay: Removal of C. albicans by macrophages derived from human monocytes (CFU); type: cell-based; conditions: macrophages treated with peptide 24 hours, then C. albicans 0.3 yeasts per macrophage, 4 hours; vs untreated
Method: The macrophages derived from human monocytes have been treated, or not, with the peptide P17 or fragments of it then incubated at 37° C. for 24 hours. These cells have been incubated for 40 minutes at 37° C. with C. albicans (at a ratio of 0.3 yeasts per macrophage) and the non-bound yeasts are removed by washing. These macrophages are thus incubated at 37° C. for 4 hours. After incubation, the environment has been removed and the cells have been lysed. The units forming colonies (CFU) of C. albicans have been determined on Sabouraud boxes after spreading and culturing for 48 hours at 37° C.

[2] = test system: macrophages derived from human monocytes; assay: Production of ROS by macrophages derived from human monocytes in response to C. albicans (luminol chemiluminescence); type: cell-based; conditions: macrophages treated 24 hours; yeast ratio per macrophage 3:1; vs untreated
From the text: To analyse the production of ROS, the macrophages derived from human monocytes have been treated, or not, with the peptide P17, P17, non-amidated, or with the following P17 fragments, P17(1-5), P17(1-7), P17(1-9), P17(1-11), P17(3-13), P17(5-13), P17(7-13) and P17(9-13); the fragments P17(1-5), P17(1-7), P17(1-9), P17(1-11) not being amidated at the C-terminal […] and the fragments P17(3-13), P17(5-13), P17(7-13) and P17(9-13) being amidated at the C-terminal. Then, the macrophages derived from human monocytes thus treated have been incubated at 37° C. for 24 hours. The production of reactive derivatives of oxygen (ROS) has been measured by chemiluminescence in the presence of 5-amino-2,3-dihydro-1,4-phthalazinedione (luminol) (EnVision; PerkinElmer). The chemiluminescence generation has been continually measured for 1 hour 30 minutes after incubation of cells with luminol (66 μM) in the presence, or not, of C. albicans (yeast ratio per macrophage: 3:1).

[3] = test system: macrophages derived from human monocytes; assay: Binding and phagocytosis of C. albicans by macrophages derived from human monocytes; type: cell-based; conditions: macrophages treated 24 hours, GFP yeasts, vs untreated
Method: To analyse the binding and the phagocytosis of C. albicans, macrophages derived from human monocytes have been treated, or not, with the peptide P17, then incubated at 37° C. for 24 hours. The macrophages derived from human monocytes have been brought together with the yeasts marked GFP (ratio 1/6) then incubated at 4° C. for 20 minutes, in order to evaluate the binding. The phagocytosis has been evaluated after 1 hour of incubation at 37° C. The quantity of C. albicans bound or ingested by macrophages derived from human monocytes has been determined by measuring the fluorescence by using a fluorimeter (PerkinElmer EnVision).

[4] = test system: macrophages derived from human monocytes; assay: Production of IL-1β, TNFα, IL-10 and IL-12 by macrophages derived from human monocytes in response to C. albicans (ELISA); type: cell-based; conditions: P17 24 hours then C. albicans 3:1 for 8 hours
Method: Macrophages derived from human […] have been stimulated with the peptide P17 for 24 hours, then these macrophages activated by the peptide P17 have been stimulated with C. albicans at a yeast per macrophage ratio of 3:1 for 8 hours. The production of IL-1β, TNFα, IL-10 and IL-12 in cell supernatants has been determined by ELISA (OptiElA BD Biosciences).

C-type lectin receptors = assay: Protein expression of C-type lectin receptors (flow cytometry); type: cell-based, human; conditions: P17 200 μg/ml, 24 hours
Method: To analyse the protein level of C-type lectin receptors, the macrophages derived from human monocytes have been treated, or not, with the peptide P17 (200 μg/ml) then incubated at 37° C. for 24 hours. The cells collected have been centrifugated at 1500 rpm for 10 minutes and […] have been suspended in the PBS supplemented with 1% foetal calf serum (FCS). The cells have been marked with antibodies coupled with different fluorochromes directed against the Dectin-1 receptor (mAb; R&D FAB1859C-100, 1/40), DC-SIGN (mAb; BD Biosciences 551 265, 1/20) CD16 (mAb; PNIM 0814, 1/20), CD36 (mAb; BD Biosciences 550 956, 1/40) and the mannose receptor (specific MR (mannose receptor) ligand) conjugated FITC (Sigma A7790, 1 mg/ml 1/100)). The analysis has been carried out by flow cytometry (Becton Dickinson FACScalibur) over a population of 10000 cells.

C. albicans = assay: Experimental gastrointestinal Candida murine model; type: in vivo; conditions: P17 10 μg per mouse i.p., vs untreated mice
Method: For in vivo experiments, a gastrointestinal infection with the C. albicans strain 98/26135 has been established by feeding with 50×10^6 of C. albicans per mouse (n=8 per group). No antibiotic or immunosuppressant treatment has been used to facilitate the infection of mucous membranes of the oral cavity and of the gastrointestinal tract. The mice have been treated intraperitoneally (i.p.) with the peptide P17 (10 μg per mouse) or with a saline solution for control groups, 1 day before the injection with C. albicans, 1 day after infection and then every 2 days (5 injections). The body weight of each mouse has been recorded daily. On the 8th day after treatment (7 days after infection), all mice have been euthanised by asphyxiation with CO2.
The oesophagus, the stomach, the caecum and the liver have been removed aseptically to evaluate the colonisation by C. albicans. The peritoneal macrophages of the mice have been sampled and the ex vivo capacities thereof to remove and to phagocytose Candida albicans have been determined. The production of ROS, IL-(3 and IL-12 by these macrophages in response to Candida albicans have also been evaluated.

EL4 tumour cells = assay: Number of lymphoma T tumour cells (EL4) in the presence of murine macrophages; type: cell-based; conditions: co-culture with macrophages polarised by P17; vs untreated macrophages
Method: Peritoneal murine macrophages have been treated, or not, with the peptide P17 then incubated at 37° C. for 24 hours. These macrophages have been incubated for 40 minutes at 37° C. with luminescent lymphoma T cells (EL4-luc) and unbound cells are removed by washing. These macrophages are thus incubated at 37° C. for 4 hours. After incubation, the number of lymphoma T cells (EL4-luc) is evaluated by chemiluminescence.

[5] = test system: peritoneal murine macrophages; assay: Production of ROS by murine macrophages in response to murine lymphoma T tumour cells (EL4); type: cell-based; conditions: murine macrophages treated with P17 24 hours
Method: To analyse the production of ROS, peritoneal murine macrophages have been treated, or not, with the peptide P17 then incubated at 37° C. for 24 hours. The production of reactive derivatives of oxygen (ROS) has been measured by chemiluminescence in the presence of 5-amino-2,3-dihydro-1,4-phthalazinedione (luminol) (EnVision; PerkinElmer). The chemiluminescence generation has been continually measured for 1 hour 30 minutes after incubation of cells with luminol […] in the presence, or not, of EL4 lymphoma T tumour cells.

Row | Substance | removal of C. albicans by macrophages [1] | production of ROS in response to C. albicans [2] | also measured
1 | LFKEILEKIKA (LFKEILEKIKA-OH) [P17(1-11)] | does not induce the production of ROS, nor the removal of Candida albicans | does not induce the production of ROS | –
2 | LFKEILE (LFKEILE-OH) [P17(1-7)] | does not induce the production of ROS, nor the removal of Candida albicans | does not induce the production of ROS | –
3 | LFKEI (LFKEI-OH) [P17(1-5)] | does not induce the production of ROS, nor the removal of Candida albicans | does not induce the production of ROS | –
4 | IKAKL [P17(9-13)] | – | Only the fragments P17(3-13) and P17(5-13) conserve the activity | –
5 | LFKEILEKIKAKL [P17] (LFKEILEKIKAKL-NH2) | considerably increases the capacity of human macrophages to remove in vitro C. albicans | higher production of ROS | capacity to recognise (binding) C. albicans ([3]; 4° C. for 20 minutes): greater capacity to recognise; capacity to phagocytose C. albicans ([3]; 1 hour at 37° C.): greater capacity to recognise and to phagocytose C. albicans; production of IL-1β [4]: higher production; production of TNFα [4]: higher production; expression of C-type lectin receptors on the surface of macrophages (C-type lectin receptors): overexpression of C-type lectin receptors; loss of body weight (C. albicans; mice with gastrointestinal candidiasis): lesser loss of weight; gastrointestinal colonisation by Candida albicans (C. albicans; mice): significantly lower; number of EL4 tumour cells (EL4 tumour cells): decreases significantly; production of ROS in response to EL4 tumour cells [5]: increased production of ROS
6 | LFKEILEKIKAKL [non-amidated P17] (LFKEILEKIKAKL-OH; listed as Tetramorium bicarinatum) | – | C-terminal amidation of P17 is essential to the pro-inflammatory activity | –
7 | LFKEILEKI (LFKEILEKI-OH) [P17(1-9)] | does not induce the production of ROS, nor the removal of Candida albicans | does not induce the production of ROS | –
8 | KEILEKIKAKL [P17(3-13)] | activity close to that of P17 | conserve the activity | –
9 | ILEKIKAKL [P17(5-13)] | activity close to that of P17 | conserve the activity | –
10 | EKIKAKL [P17(7-13)] | – | Only the fragments P17(3-13) and P17(5-13) conserve the activity | –
